Measured values from US20030064380A1, “Anergy-regulated molecules” (The Center For Blood Research, Inc., priority 2001, published 2003).

Test system: D5 Th1 T cell line
Assay: nucleic acid expression profile of D5 Th1 T cell line stimulated with 500 nM ionomycin, 1 μM CsA plus ionomycin or 20 nM PMA plus ionomycin; 11K chip, first replicate
Format: cell-based, murine
Set-up: expression level of Msa.15983.0_f_at / expression level of Msa.1669.0_f_at / expression level of Msa.18713.0_g_at / expression level of D86609_s_at / expression level of TC19211_at / expression level of TC21156_at / expression level of TC24045_at / expression level of TC30384_g_at / expression level of TC3225_at / expression level of TC38978_at / expression level of TC39080_at / expression level of TC17495_at: unit not given here
Procedure: D5 or primary T cells from NFAT1−/− or wild type DO11.10 transgenic mice were stimulated for 2, 6 or 16 hours with 500 nM ionomycin, 20 nM PMA plus 500 nM ionomycin, or 1 μM CsA plus 500 nM ionomycin. Total RNA was isolated with an RNeasy kit (QIAGEN). Ten μg of total RNA was quantitatively amplified and biotin-labeled as described (Byrne et al., (2000) “Preparation of mRNA for Expression Monitoring” Current Protocols in Molecular Biology (John Wiley & Sons, Inc.) pp. 22.22.21-22.22.13). Hybridization to GeneChips® (Affymetrix) displaying probes for 11,000 mouse genes/ESTs was performed at 40° C. overnight in a mix that included 10 μg fragmented RNA, 6× SSPE, 0.005% Triton X-100 and 100 μg/ml herring sperm DNA in a total volume of 200 μl. Chips were washed, stained with SA-PE and read using an Affymetrix GeneChip® scanner and accompanying gene expression software. Labeled bacterial RNAs of known concentration were spiked into each chip hybridization mix to generate an internal standard curve, allowing normalization between chips and conversion of raw hybridization intensity values to mRNA frequency (mRNA molecules per million).
Nucleic acid expression profiles were obtained from a T cell line at multiple time points and in various T cell states. The D5 Th1 T cell line was stimulated in three different ways: 1) ionomycin alone (e.g., causing the regulatory factor NFAT to move from the cytoplasm to the nucleus); 2) ionomycin+PMA (e.g., causing both NFAT and the transcription factor AP-1 to enter the nucleus); 3) ionomycin +cyclosporin A (CsA) (e.g., preventing NFAT from entering the nucleus in response to ionomycin). […] Cells were stimulated for 0, 2, 6, and 16 hours. RNA was isolated and analyzed on a nucleic acid chip with probes that monitor the expression of 11,000 nucleic acids located at unique addresses. The experiment was done twice (i.e., with two replicates, Rep. 1 and Rep. 2). Nucleic acid expression at the 2, 6 and 16 hour timepoints was compared to nucleic acid expression at 0 hours.
The nucleic acid expression data was stored in a computer database. A database query was used to identify all nucleic acids that were deemed “increasing” or “decreasing” in response to ionomycin (relative to the 0 hour sample) in at least one timepoint in Rep. 1, and the nucleic acids were also deemed “increasing” or “decreasing” in response to ionomycin in Rep. 2.
To test the hypothesis that NFAT in the absence of AP-1 and NFKB induced a genetic program of anergy, genes induced in D5 T cells by ionomycin stimulation alone were evaluated (FIGS. 1, 2 and 6). Samples from D5 cells stimulated with ionomycin plus CsA, which blocks anergy induction, and ionomycin plus PMA, which pharmacologically mimic complete stimulation through the TCR and CD28 were included. RNA was prepared from unstimulated D5 T cells and from cells stimulated for 2, 6 or 16 h under these three conditions, and gene transcription profiles were evaluated using Affymetrix oligonucleotide arrays (FIG. 6A).

## C[C@H](CCC(=O)O)C[C@H](C)C[C@H](C)C(=O)/C=C(\O)[C@H](C)C[C@H](C)C/C=C/[C@@H](C)[C@@H](O)[C@@H](C)[C@@H](O)C[C@@H]1CC[C@@](C)([C@H]2CC[C@@](C)([C@@H](C)O)O2)O1 [Ionomycin, ionomycin]
2 h
  expression level of D86609_s_at: 48
  expression level of ET63436_at: 149
  expression level of MIP1-B_at: 265.5
  expression level of Msa.11439.0_s_at: 37
  expression level of Msa.15983.0_f_at: 40
  expression level of Msa.1669.0_f_at: 33
  expression level of Msa.18713.0_g_at: 63
  expression level of Msa.21745.0_s_at: 9
  expression level of TC3225_at: 41
  expression level of TC14671_g_at: 15
  expression level of TC16364_at: 38
  expression level of TC16828_at: 13
  expression level of TC17132_at: 41
  expression level of TC17495_at: 10
  expression level of TC17558_at: 28
  expression level of TC18221_at: 6
  expression level of TC19211_at: 21
  expression level of TC21156_at: 34
  expression level of TC23346_s_at: 8
  expression level of TC23450_s_at: 20
  expression level of TC24045_at: 26
  expression level of TC24067_at: 8
  expression level of TC25965_at: 19
  expression level of TC27326_g_at: 40
  expression level of TC29889_at: 17
  expression level of TC30384_g_at: 77
  expression level of TC30935_at: 30
  expression level of TC30992_s_at: 14
  expression level of TC31681_at: 52
  expression level of TC33206_at: 20
  expression level of TC33833_at: 19
  expression level of TC34186_at: 19
  expression level of TC36089_at: 145
  expression level of TC36583_at: 26
  expression level of TC37631_at: 38
  expression level of TC38094_at: 13
  expression level of TC38978_at: 9
  expression level of TC39012_at: 47
  expression level of TC39080_at: 7
  expression level of TC39762_at: 17
  expression level of TC40487_g_at: 14
  expression level of TC41014_at: 9
  expression level of U44731_s_at: 80
  expression level of X67914_s_at: 59
  expression level of Z31202_s_at: 17
  expression level of aa144045_s_at: 46
  expression level of aa174748_at: 55
  expression level of c81206_rc_at: 23
  expression level of k00083_s_at: 54
  expression level of x12531_s_at: 81
6 h
  expression level of D86609_s_at: 21
  expression level of ET63436_at: 82
  expression level of MIP1-B_at: 102
  expression level of Msa.11439.0_s_at: 31
  expression level of Msa.15983.0_f_at: 33
  expression level of Msa.1669.0_f_at: 38
  expression level of Msa.18713.0_g_at: 35
  expression level of Msa.21745.0_s_at: 6
  expression level of TC3225_at: 44
  expression level of TC14671_g_at: 19
  expression level of TC16364_at: 42
  expression level of TC16828_at: 48
  expression level of TC17132_at: 54
  expression level of TC17495_at: 9
  expression level of TC17558_at: 26
  expression level of TC18221_at: 8
  expression level of TC19211_at: 17
  expression level of TC21156_at: 33
  expression level of TC23346_s_at: 11
  expression level of TC23450_s_at: 12
  expression level of TC24045_at: 21
  expression level of TC24067_at: 23
  expression level of TC25965_at: 18
  expression level of TC27326_g_at: 33
  expression level of TC29889_at: 15
